In experiment [1] the test system is T1, acetyl-CoA synthetase (Acs) from ANME-2a.
T1 construct: codon-optimised synthetic gene in pET-28a (NdeI/BamHI), E. coli Rosetta(DE3), Ni-NTA purified, 70 kDa
Nature of the experiment: DTNB assay of HSCoA release, […] nm. The experiment is classed as biochemical, ANME-2 cluster archaeon (ANME-2a, uncultured). The conditions noted are these: acetate-forming direction; 2 mM AMP, 2 mM PPi, 1.25 M KCl, 1 mM MgCl2, 20 mM Tris-HCl pH 8.0.

Experiment [2] concerns T2, ADP-forming acetate-CoA ligase (Acd) from ANME-2a.
T2 construct: alpha (55 kDa) and beta (25 kDa) subunits, codon-optimised synthetic genes in pET-28a (NdeI/BamHI and BamHI/SalI, RBS before beta), E. coli BL21(DE3)-groEL, Ni-NTA purified
Briefly: DTNB assay of HSCoA release, […] nm. The experiment is classed as biochemical, ANME-2 cluster archaeon (ANME-2a, uncultured). The conditions noted are these: acetate-forming direction; 2 mM ADP, 40 mM K3PO4, 1 mM MgCl2, 20 mM Tris-HCl pH 8.0.

The test system of experiment [3] is acetyl-CoA synthetase (Acs) from ANME-2a. The conditions noted are these: acetyl-CoA-forming direction; concentrations of ATP and CoA not given.

Structures are written as SMILES. Like-named read-outs stand apart in the source and are kept apart here.

In general, Km refers to the concentration of substrate that gives half-maximal velocity. On to `CC(=O)SCCNC(=O)CCNC(=O)[C@H](O)C(C)(C)COP(=O)(O)OP(=O)(O)OC[C@H]1O[C@@H](n2cnc3c(N)ncnc32)[C@H](O)[C@@H]1OP(=O)(O)O` [acetyl-CoA], for which the figures for the Km in experiment [1] and in experiment [2] were 8.5 µM and 31.3 µM, respectively. With `CC(=O)O` [acetate], in experiment [3], the Km is 490 µM.

The values above are taken from PMC7414198, “Genomic and enzymatic evidence of acetogenesis by anaerobic methanotrophic archaea” (Nature Communications, 2020).
